Measured values taken from article PMC12626888, “Discovery of iridoid cyclase completes the iridoid pathway in asterids” (Nature Plants, 2025).

Columns and labels:
Assay type in all cases: biochemical
AmICYC [1] = biological target: T1, AmICYC (Antirrhinum majus, UniProt Z9RFY5ZUY7); assay: GC-MS of 7R-cis-cis nepetalactol formed in coupled assay with AmISY; settings: enol generated in situ from 0.5 mM 8-oxogeranial by AmISY with 1 mM NADPH; 2 uM ICYC; 100 mM MOPS pH 7.5; 30 °C; 3 h
T1 construct: synthetic full-length gene in pOPINF, His-tagged, E. coli SoluBL21 (DE3), Ni-NTA
T1 sequence (Z9RFY5ZUY7 1-261): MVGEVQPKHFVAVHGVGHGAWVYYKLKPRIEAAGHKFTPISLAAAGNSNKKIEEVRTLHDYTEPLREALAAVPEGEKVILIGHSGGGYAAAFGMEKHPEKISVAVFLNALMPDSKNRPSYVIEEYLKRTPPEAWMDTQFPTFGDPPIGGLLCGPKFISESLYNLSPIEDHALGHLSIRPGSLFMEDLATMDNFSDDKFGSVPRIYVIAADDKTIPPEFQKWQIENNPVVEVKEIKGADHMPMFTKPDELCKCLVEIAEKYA

SiICYC [2] = biological target: T2, SiICYC (Sesamum indicum, UniProt A0A6I9UJQ5); assay: as above; settings: enol generated in situ from 0.5 mM 8-oxogeranial by AmISY with 1 mM NADPH; 2 uM ICYC; 100 mM MOPS pH 7.5; 30 °C; 3 h
T2 construct: gene LOC105177689; synthetic full-length gene in pOPINF, His-tagged, E. coli SoluBL21 (DE3), Ni-NTA
T2 sequence (A0A6I9UJQ5 entry or part of it): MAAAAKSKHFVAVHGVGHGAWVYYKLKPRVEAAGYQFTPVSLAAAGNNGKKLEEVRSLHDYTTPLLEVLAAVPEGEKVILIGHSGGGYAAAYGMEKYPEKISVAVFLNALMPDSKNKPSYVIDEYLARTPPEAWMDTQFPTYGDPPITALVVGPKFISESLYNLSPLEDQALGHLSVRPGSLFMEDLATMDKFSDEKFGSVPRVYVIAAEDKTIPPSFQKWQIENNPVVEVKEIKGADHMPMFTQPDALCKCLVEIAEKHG

CrICYC [3] = biological target: T3, CrICYC (Catharanthus roseus, UniProt Z9BZX6L7S3); assay: spectrophotometric esterase assay, […] nm; settings: 2 mM substrate; 0.5 uM enzyme; 100 mM HEPES pH 7; 1 mM CaCl2; 25 °C
T3 construct: full-length CDS in pOPINF, His-tagged, E. coli SoluBL21 (DE3), Ni-NTA
T3 sequence (Z9BZX6L7S3 1-258): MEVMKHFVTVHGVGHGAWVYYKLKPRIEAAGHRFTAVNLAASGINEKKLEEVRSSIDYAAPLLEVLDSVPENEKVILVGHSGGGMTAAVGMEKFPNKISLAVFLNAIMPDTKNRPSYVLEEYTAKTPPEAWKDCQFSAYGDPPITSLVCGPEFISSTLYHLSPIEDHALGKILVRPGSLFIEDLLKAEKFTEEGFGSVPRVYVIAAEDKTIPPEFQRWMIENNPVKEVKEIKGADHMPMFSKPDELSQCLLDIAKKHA

SiICYC [4] = biological target: T2, SiICYC; assay: spectrophotometric esterase assay, […] nm; settings: 2 mM substrate; 0.5 uM enzyme; 100 mM HEPES pH 7; 1 mM CaCl2; 25 °C
VcICYC [5] = biological target: T4, VcICYC (Vaccinium corymbosum, UniProt Z9DZC4CR80); assay: spectrophotometric esterase assay, […] nm; settings: 2 mM substrate; 0.5 uM enzyme; 100 mM HEPES pH 7; 1 mM CaCl2; 25 °C
T4 construct: synthetic full-length gene in pOPINF, His-tagged, E. coli SoluBL21 (DE3), Ni-NTA
T4 sequence (Z9DZC4CR80 1-256): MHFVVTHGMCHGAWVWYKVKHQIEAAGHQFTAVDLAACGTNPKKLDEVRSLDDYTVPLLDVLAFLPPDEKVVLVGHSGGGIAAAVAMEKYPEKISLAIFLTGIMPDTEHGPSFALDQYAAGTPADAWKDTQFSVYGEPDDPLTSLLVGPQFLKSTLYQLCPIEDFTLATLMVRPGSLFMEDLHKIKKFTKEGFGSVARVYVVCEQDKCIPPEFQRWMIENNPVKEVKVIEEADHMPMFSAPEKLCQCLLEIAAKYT

CiICYC [6] = biological target: T5, CiICYC (Carapichea ipecacuanha, UniProt Z9ZM09DHC0); assay: spectrophotometric esterase assay, […] nm; settings: 2 mM substrate; 0.5 uM enzyme; 100 mM HEPES pH 7; 1 mM CaCl2; 25 °C
T5 construct: full-length CDS in pOPINF, His-tagged, E. coli SoluBL21 (DE3), Ni-NTA
T5 sequence (Z9ZM09DHC0 1-260): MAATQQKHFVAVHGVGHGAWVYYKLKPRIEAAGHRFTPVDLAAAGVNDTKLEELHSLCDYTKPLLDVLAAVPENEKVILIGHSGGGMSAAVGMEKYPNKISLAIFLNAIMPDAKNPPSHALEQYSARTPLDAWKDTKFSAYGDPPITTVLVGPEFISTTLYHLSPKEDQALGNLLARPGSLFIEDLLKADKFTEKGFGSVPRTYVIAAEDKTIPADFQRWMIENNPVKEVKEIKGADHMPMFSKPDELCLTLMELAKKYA

AsICYC [7] = biological target: T6, AsICYC (Alangium salviifolium, UniProt Z9MAI7V5A1); assay: spectrophotometric esterase assay, […] nm; settings: 2 mM substrate; 0.5 uM enzyme; 100 mM HEPES pH 7; 1 mM CaCl2; 25 °C
T6 construct: full-length CDS in pOPINF, His-tagged, E. coli SoluBL21 (DE3), Ni-NTA
T6 sequence (Z9MAI7V5A1 1-262): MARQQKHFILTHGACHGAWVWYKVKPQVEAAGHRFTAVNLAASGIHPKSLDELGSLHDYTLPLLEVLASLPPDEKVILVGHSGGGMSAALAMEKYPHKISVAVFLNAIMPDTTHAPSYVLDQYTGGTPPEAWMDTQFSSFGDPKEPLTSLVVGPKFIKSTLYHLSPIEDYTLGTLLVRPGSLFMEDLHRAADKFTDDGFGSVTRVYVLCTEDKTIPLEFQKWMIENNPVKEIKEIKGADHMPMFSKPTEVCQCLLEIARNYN

LjICYC [8] = biological target: T7, LjICYC (Lonicera japonica, UniProt Z9XP04JJ76); assay: spectrophotometric esterase assay, […] nm; settings: 2 mM substrate; 0.5 uM enzyme; 100 mM HEPES pH 7; 1 mM CaCl2; 25 °C
T7 construct: synthetic full-length gene in pOPINF, His-tagged, E. coli SoluBL21 (DE3), Ni-NTA
T7 sequence (Z9XP04JJ76 1-260): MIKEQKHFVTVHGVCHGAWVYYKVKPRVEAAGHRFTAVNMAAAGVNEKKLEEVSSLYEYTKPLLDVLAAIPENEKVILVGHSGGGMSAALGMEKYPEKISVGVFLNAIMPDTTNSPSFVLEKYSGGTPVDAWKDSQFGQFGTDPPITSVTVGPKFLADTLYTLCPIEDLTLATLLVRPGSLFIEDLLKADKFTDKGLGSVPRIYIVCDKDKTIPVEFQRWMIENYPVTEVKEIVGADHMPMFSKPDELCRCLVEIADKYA

AmICYC [9] = biological target: T1, AmICYC; assay: spectrophotometric esterase assay, […] nm; settings: 2 mM substrate; 0.5 uM enzyme; 100 mM HEPES pH 7; 1 mM CaCl2; 25 °C
AsICYC [10] = biological target: T6, AsICYC; assay: GC-MS of 7S-cis-trans nepetalactol formed in coupled assay with CrISY; settings: enol generated in situ from 0.5 mM 8-oxogeranial by CrISY with 1 mM NADPH; 2 uM ICYC; 100 mM MOPS pH 7.5; 30 °C; 3 h
VcICYC [11] = biological target: T4, VcICYC; assay: as above; settings: enol generated in situ from 0.5 mM 8-oxogeranial by CrISY with 1 mM NADPH; 2 uM ICYC; 100 mM MOPS pH 7.5; 30 °C; 3 h
CiICYC [12] = biological target: T5, CiICYC; assay: as above; settings: enol generated in situ from 0.5 mM 8-oxogeranial by CrISY with 1 mM NADPH; 2 uM ICYC; 100 mM MOPS pH 7.5; 30 °C; 3 h
LjICYC [13] = biological target: T7, LjICYC; assay: as above; settings: enol generated in situ from 0.5 mM 8-oxogeranial by CrISY with 1 mM NADPH; 2 uM ICYC; 100 mM MOPS pH 7.5; 30 °C; 3 h
CrICYC [14] = biological target: T3, CrICYC; assay: as above; settings: enol generated in situ from 0.5 mM 8-oxogeranial by CrISY with 1 mM NADPH; 2 uM ICYC; 100 mM MOPS pH 7.5; 30 °C; 3 h
CrISY = biological target: T8, CrISY (Catharanthus roseus, UniProt K7WDL7); assay: GC-MS of products; settings: 0.5 mM 8-oxogeranial; 1 mM NADPH; 0.25 uM CrISY; 100 mM MOPS pH 7.5; 30 °C; 3 h
T8 construct: recombinant, E. coli, pOPINF His-tagged
T8 sequence (K7WDL7 whole entry): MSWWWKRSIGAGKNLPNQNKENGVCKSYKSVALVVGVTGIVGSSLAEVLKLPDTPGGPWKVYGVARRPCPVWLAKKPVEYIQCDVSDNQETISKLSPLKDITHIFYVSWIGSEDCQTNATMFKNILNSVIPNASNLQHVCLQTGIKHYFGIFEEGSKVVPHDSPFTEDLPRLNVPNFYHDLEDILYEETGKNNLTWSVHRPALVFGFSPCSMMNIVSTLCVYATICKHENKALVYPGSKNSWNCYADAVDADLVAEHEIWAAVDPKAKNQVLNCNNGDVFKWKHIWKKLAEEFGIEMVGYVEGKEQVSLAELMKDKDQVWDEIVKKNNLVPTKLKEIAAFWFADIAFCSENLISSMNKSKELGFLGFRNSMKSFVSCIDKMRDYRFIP

AmISY = biological target: T9, AmISY (Antirrhinum majus, UniProt A0A221J5P3); assay: GC-MS of products; settings: 0.5 mM 8-oxogeranial; 1 mM NADPH; 0.5 uM AmISY; 100 mM MOPS pH 7.5; 30 °C; 3 h
T9 construct: gene ISY; recombinant, E. coli, pOPINF His-tagged
T9 sequence (A0A221J5P3 1-387): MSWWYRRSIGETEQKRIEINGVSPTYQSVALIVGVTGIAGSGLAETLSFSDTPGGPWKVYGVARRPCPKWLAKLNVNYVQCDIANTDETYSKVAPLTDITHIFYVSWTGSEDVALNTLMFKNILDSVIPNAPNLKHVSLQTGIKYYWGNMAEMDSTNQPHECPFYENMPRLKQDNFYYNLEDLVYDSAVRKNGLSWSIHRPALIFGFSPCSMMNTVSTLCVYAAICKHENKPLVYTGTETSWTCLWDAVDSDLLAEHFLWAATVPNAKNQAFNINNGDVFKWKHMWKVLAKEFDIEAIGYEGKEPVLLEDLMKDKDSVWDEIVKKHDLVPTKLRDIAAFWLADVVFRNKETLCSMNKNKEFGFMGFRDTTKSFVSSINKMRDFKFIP

C/C(C=O)=C\CC[C@@H](C)/C=C/O [R-8-oxocitronellyl enol]
GC-MS of 7R-cis-cis nepetalactol formed in coupled assay with AmISY (AmICYC [1]): When AmISY was assayed with ICYC orthologues, a new peak appeared
GC-MS of 7R-cis-cis nepetalactol formed in coupled assay with AmISY (SiICYC [2]): When AmISY was assayed with ICYC orthologues, a new peak appeared

CC(=O)Oc1ccc([N+](=O)[O-])cc1 [4-nitrophenyl acetate]
spectrophotometric esterase assay, 405 nm (CrICYC [3]): All ICYC orthologues showed esterase activity when tested with the model substrate 4-nitrophenyl acetate
spectrophotometric esterase assay, 405 nm (SiICYC [4]): All ICYC orthologues showed esterase activity when tested with the model substrate 4-nitrophenyl acetate
spectrophotometric esterase assay, 405 nm (VcICYC [5]): All ICYC orthologues showed esterase activity when tested with the model substrate 4-nitrophenyl acetate
spectrophotometric esterase assay, 405 nm (CiICYC [6]): All ICYC orthologues showed esterase activity when tested with the model substrate 4-nitrophenyl acetate
spectrophotometric esterase assay, 405 nm (AsICYC [7]): All ICYC orthologues showed esterase activity when tested with the model substrate 4-nitrophenyl acetate
spectrophotometric esterase assay, 405 nm (LjICYC [8]): All ICYC orthologues showed esterase activity when tested with the model substrate 4-nitrophenyl acetate
spectrophotometric esterase assay, 405 nm (AmICYC [9]): All ICYC orthologues showed esterase activity when tested with the model substrate 4-nitrophenyl acetate

C/C(C=O)=C\CC[C@H](C)/C=C/O [S-8-oxocitronellyl enol]
GC-MS of 7S-cis-trans nepetalactol formed in coupled assay with CrISY (AsICYC [10]): any of the ICYC orthologues, 7S-cis-trans (7S, 4aS, 7aS) nepetalactol accumulation was substantially increased
GC-MS of 7S-cis-trans nepetalactol formed in coupled assay with CrISY (VcICYC [11]): any of the ICYC orthologues, 7S-cis-trans (7S, 4aS, 7aS) nepetalactol accumulation was substantially increased
GC-MS of 7S-cis-trans nepetalactol formed in coupled assay with CrISY (CiICYC [12]): any of the ICYC orthologues, 7S-cis-trans (7S, 4aS, 7aS) nepetalactol accumulation was substantially increased
GC-MS of 7S-cis-trans nepetalactol formed in coupled assay with CrISY (LjICYC [13]): any of the ICYC orthologues, 7S-cis-trans (7S, 4aS, 7aS) nepetalactol accumulation was substantially increased
GC-MS of 7S-cis-trans nepetalactol formed in coupled assay with CrISY (CrICYC [14]): any of the ICYC orthologues, 7S-cis-trans (7S, 4aS, 7aS) nepetalactol accumulation was substantially increased

C/C(C=O)=C\CC/C(C)=C/C=O [8-oxogeranial]
GC-MS of products (CrISY): CrISY and AmISY reduce 8-oxogeranial to form the unstable intermediate S- or R-8-oxocitronellyl enol
GC-MS of products (AmISY): CrISY and AmISY reduce 8-oxogeranial to form the unstable intermediate S- or R-8-oxocitronellyl enol
